Measurements: PubChem BioAssay (NCI)
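At the GI50, growth is halved. The concentration for full growth arrest is given as TGI.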

Legend:
Assay in all cases: NCI tumour cell line growth inhibition, 384-well format; in the data active means GI50 below about 0.43 µM; inactive means the rest
HL-60(TB) leukemia = tested on: HL-60(TB) leukemia
SR leukemia = tested on: SR leukemia
OVCAR-5 ovarian = tested on: OVCAR-5 ovarian
A498 renal = tested on: A498 renal
SN12C renal = tested on: SN12C renal
UACC-62 melanoma = tested on: UACC-62 melanoma
HT29 colon = tested on: HT29 colon
CAKI-1 renal = tested on: CAKI-1 renal
UACC-257 melanoma = tested on: UACC-257 melanoma
RPMI-8226 leukemia = tested on: RPMI-8226 leukemia
LOX IMVI melanoma = tested on: LOX IMVI melanoma
SNB-75 CNS = tested on: SNB-75 CNS
KM12 colon = tested on: KM12 colon
HS 578T breast = tested on: HS 578T breast
OVCAR-3 ovarian = tested on: OVCAR-3 ovarian
SK-OV-3 ovarian = tested on: SK-OV-3 ovarian
TK-10 renal = tested on: TK-10 renal
EKVX NSCLC = tested on: EKVX NSCLC
NCI-H23 lung = tested on: NCI-H23 lung
OVCAR-8 ovarian = tested on: OVCAR-8 ovarian
HCC-2998 colon = tested on: HCC-2998 colon
NCI-H522 lung = tested on: NCI-H522 lung
NCI-H226 lung = tested on: NCI-H226 lung
SK-MEL-28 melanoma = tested on: SK-MEL-28 melanoma
MCF7 breast = tested on: MCF7 breast
BT-549 breast = tested on: BT-549 breast
COLO 205 colon = tested on: COLO 205 colon
MALME-3M melanoma = tested on: MALME-3M melanoma
SF-268 CNS = tested on: SF-268 CNS
MDA-MB-435 melanoma = tested on: MDA-MB-435 melanoma
PC-3 prostate = tested on: PC-3 prostate
HOP-92 NSCLC = tested on: HOP-92 NSCLC
NCI-H322M lung = tested on: NCI-H322M lung
MOLT-4 leukemia = tested on: MOLT-4 leukemia
A549 NSCLC = tested on: A549 NSCLC
MDA-MB-231 breast = tested on: MDA-MB-231 breast
SK-MEL-5 melanoma = tested on: SK-MEL-5 melanoma
HCT-116 colon = tested on: HCT-116 colon
SF-539 CNS = tested on: SF-539 CNS
M14 melanoma = tested on: M14 melanoma
HCT-15 colon = tested on: HCT-15 colon
HOP-62 NSCLC = tested on: HOP-62 NSCLC
SNB-19 CNS = tested on: SNB-19 CNS
NCI-H460 NSCLC = tested on: NCI-H460 NSCLC
IGROV1 ovarian = tested on: IGROV1 ovarian
U251 glioblastoma = tested on: U251 glioblastoma
DU-145 prostate = tested on: DU-145 prostate
OVCAR-4 ovarian = tested on: OVCAR-4 ovarian
ACHN renal = tested on: ACHN renal
NCI/ADR-RES ovarian = tested on: NCI/ADR-RES ovarian
MDA-MB-468 breast = tested on: MDA-MB-468 breast
RXF 393 renal = tested on: RXF 393 renal
SF-295 CNS = tested on: SF-295 CNS
T-47D breast = tested on: T-47D breast

Nc1nc(Nc2ccc(C3CCC(N4CCOCC4)CC3)cc2)nn1-c1ccccn1 (stereo unspecified)
3.25 µM: TGI (BT-549 breast)
3.23 µM: TGI (SK-MEL-5 melanoma)
3.31 µM: TGI (UACC-257 melanoma)
7.6 µM: TGI (ACHN renal)
2.67 µM: TGI (HL-60(TB) leukemia)
6.32 µM: TGI (HCC-2998 colon)
8.5 µM: TGI (DU-145 prostate)
3.63 µM: TGI (LOX IMVI melanoma)
6.7 µM: TGI (HOP-62 NSCLC)
13.2 µM: TGI (SF-268 CNS)
6.2 µM: TGI (MDA-MB-435 melanoma)
5.83 µM: TGI (COLO 205 colon)
3.59 µM: TGI (HT29 colon)
3.94 µM: TGI (SNB-75 CNS)
3.34 µM: TGI (SK-MEL-28 melanoma)
3.54 µM: TGI (HS 578T breast)
4.56 µM: TGI (UACC-62 melanoma)
10.7 µM: TGI (NCI-H460 NSCLC)
4.1 µM: TGI (MALME-3M melanoma)
24.1 µM: TGI (TK-10 renal)
active: GI50 (SR leukemia) 0.255 µM | GI50 (KM12 colon) 0.291 µM
3.02 µM: TGI (SF-539 CNS)
0.559 µM: TGI (SR leukemia)
16.5 µM: TGI (SNB-19 CNS)
11.9 µM: TGI (PC-3 prostate)
6 µM: TGI (HCT-116 colon)
20.4 µM: TGI (HOP-92 NSCLC)
6.49 µM: TGI (NCI-H226 lung)
7.21 µM: TGI (OVCAR-3 ovarian)
5.75 µM: TGI (A498 renal)
9.08 µM: TGI (NCI-H522 lung)
inactive: GI50 (HL-60(TB) leukemia) 1.35 µM | GI50 (OVCAR-5 ovarian) 2.44 µM | GI50 (A498 renal) 2.57 µM | GI50 (SN12C renal) 1.05 µM | GI50 (UACC-62 melanoma) 2.03 µM | GI50 (HT29 colon) 1.82 µM | GI50 (CAKI-1 renal) 3.08 µM | GI50 (UACC-257 melanoma) 1.83 µM | GI50 (RPMI-8226 leukemia) 2.3 µM | GI50 (LOX IMVI melanoma) 2.04 µM | GI50 (SNB-75 CNS) 2 µM | GI50 (HS 578T breast) 1.89 µM | GI50 (OVCAR-3 ovarian) 3.13 µM | GI50 (SK-OV-3 ovarian) 3.33 µM | GI50 (TK-10 renal) 5.32 µM | GI50 (EKVX NSCLC) 4.45 µM | GI50 (NCI-H23 lung) 2.77 µM | GI50 (OVCAR-8 ovarian) 5.06 µM | GI50 (HCC-2998 colon) 2.97 µM | GI50 (NCI-H522 lung) 3.11 µM | GI50 (NCI-H226 lung) 2.59 µM | GI50 (SK-MEL-28 melanoma) 1.81 µM | GI50 (MCF7 breast) 3.43 µM | GI50 (BT-549 breast) 1.67 µM | GI50 (COLO 205 colon) 2.89 µM | GI50 (MALME-3M melanoma) 1.86 µM | GI50 (SF-268 CNS) 3.37 µM | GI50 (MDA-MB-435 melanoma) 2.25 µM | GI50 (PC-3 prostate) 3.57 µM | GI50 (HOP-92 NSCLC) 4.97 µM | GI50 (NCI-H322M lung) 4.03 µM | GI50 (MOLT-4 leukemia) 1.76 µM | GI50 (A549 NSCLC) 3.49 µM | GI50 (MDA-MB-231 breast) 4.56 µM | GI50 (SK-MEL-5 melanoma) 1.7 µM | GI50 (HCT-116 colon) 2.42 µM | GI50 (SF-539 CNS) 1.43 µM | GI50 (M14 melanoma) 2.26 µM | GI50 (HCT-15 colon) 2.01 µM | GI50 (HOP-62 NSCLC) 2.58 µM | GI50 (SNB-19 CNS) 3.68 µM | GI50 (NCI-H460 NSCLC) 3.17 µM | GI50 (IGROV1 ovarian) 3.06 µM | GI50 (U251 glioblastoma) 2.02 µM | GI50 (DU-145 prostate) 3.08 µM | GI50 (OVCAR-4 ovarian) 7.22 µM | GI50 (ACHN renal) 2.84 µM
3.78 µM: TGI (RPMI-8226 leukemia)
> 100 µM: TGI (CAKI-1 renal) | TGI (KM12 colon) | TGI (SK-OV-3 ovarian) | TGI (EKVX NSCLC) | TGI (NCI-H23 lung) | TGI (OVCAR-8 ovarian) | TGI (MCF7 breast) | TGI (A549 NSCLC) | TGI (MDA-MB-231 breast)
3.19 µM: TGI (MOLT-4 leukemia)
3.84 µM: TGI (SN12C renal)
4.06 µM: TGI (U251 glioblastoma)
5.19 µM: TGI (OVCAR-5 ovarian)
27.8 µM: TGI (OVCAR-4 ovarian)
11.6 µM: TGI (IGROV1 ovarian)
15 µM: TGI (NCI-H322M lung)
3.89 µM: TGI (M14 melanoma)
4.14 µM: TGI (HCT-15 colon)

CCOc1ccccc1N=Nc1c(C)[nH]n(-c2nc(-c3ccccc3)cs2)c1=O
inactive: GI50 (HL-60(TB) leukemia) 21.4 µM | GI50 (SR leukemia) > 100 µM | GI50 (OVCAR-5 ovarian) > 100 µM | GI50 (A498 renal) > 100 µM | GI50 (SN12C renal) > 100 µM | GI50 (UACC-62 melanoma) > 100 µM | GI50 (HT29 colon) > 100 µM | GI50 (NCI/ADR-RES ovarian) > 100 µM | GI50 (CAKI-1 renal) > 100 µM | GI50 (UACC-257 melanoma) > 100 µM | GI50 (RPMI-8226 leukemia) 53.9 µM | GI50 (LOX IMVI melanoma) > 100 µM | GI50 (SNB-75 CNS) > 100 µM | GI50 (KM12 colon) > 100 µM | GI50 (HS 578T breast) > 100 µM | GI50 (OVCAR-3 ovarian) > 100 µM | GI50 (SK-OV-3 ovarian) > 100 µM | GI50 (TK-10 renal) > 100 µM | GI50 (EKVX NSCLC) > 100 µM | GI50 (NCI-H23 lung) > 100 µM | GI50 (OVCAR-8 ovarian) > 100 µM | GI50 (MDA-MB-468 breast) 1.47 µM | GI50 (RXF 393 renal) > 100 µM | GI50 (HCC-2998 colon) > 100 µM | GI50 (NCI-H522 lung) > 100 µM | GI50 (NCI-H226 lung) > 100 µM | GI50 (SK-MEL-28 melanoma) > 100 µM | GI50 (MCF7 breast) > 100 µM | GI50 (BT-549 breast) > 100 µM | GI50 (SF-295 CNS) > 100 µM | GI50 (COLO 205 colon) > 100 µM | GI50 (T-47D breast) > 100 µM | GI50 (MALME-3M melanoma) > 100 µM | GI50 (SF-268 CNS) > 100 µM | GI50 (MDA-MB-435 melanoma) > 100 µM | GI50 (PC-3 prostate) > 100 µM | GI50 (HOP-92 NSCLC) > 100 µM | GI50 (NCI-H322M lung) > 100 µM | GI50 (MOLT-4 leukemia) 98.9 µM | GI50 (A549 NSCLC) > 100 µM | GI50 (MDA-MB-231 breast) > 100 µM | GI50 (SK-MEL-5 melanoma) > 100 µM | GI50 (HCT-116 colon) > 100 µM | GI50 (SF-539 CNS) > 100 µM | GI50 (M14 melanoma) > 100 µM | GI50 (HCT-15 colon) > 100 µM | GI50 (HOP-62 NSCLC) > 100 µM | GI50 (SNB-19 CNS) > 100 µM | GI50 (NCI-H460 NSCLC) > 100 µM | GI50 (IGROV1 ovarian) > 100 µM | GI50 (U251 glioblastoma) > 100 µM | GI50 (DU-145 prostate) > 100 µM | GI50 (OVCAR-4 ovarian) > 100 µM | GI50 (ACHN renal) > 100 µM
> 100 µM: TGI (HL-60(TB) leukemia) | TGI (SR leukemia) | TGI (OVCAR-5 ovarian) | TGI (A498 renal) | TGI (SN12C renal) | TGI (UACC-62 melanoma) | TGI (HT29 colon) | TGI (NCI/ADR-RES ovarian) | TGI (CAKI-1 renal) | TGI (UACC-257 melanoma) | TGI (RPMI-8226 leukemia) | TGI (LOX IMVI melanoma) | TGI (SNB-75 CNS) | TGI (KM12 colon) | TGI (HS 578T breast) | TGI (OVCAR-3 ovarian) | TGI (SK-OV-3 ovarian) | TGI (TK-10 renal) | TGI (EKVX NSCLC) | TGI (NCI-H23 lung) | TGI (OVCAR-8 ovarian) | TGI (RXF 393 renal) | TGI (HCC-2998 colon) | TGI (NCI-H522 lung) | TGI (NCI-H226 lung) | TGI (SK-MEL-28 melanoma) | TGI (MCF7 breast) | TGI (BT-549 breast) | TGI (SF-295 CNS) | TGI (COLO 205 colon) | TGI (T-47D breast) | TGI (MALME-3M melanoma) | TGI (SF-268 CNS) | TGI (MDA-MB-435 melanoma) | TGI (PC-3 prostate) | TGI (HOP-92 NSCLC) | TGI (NCI-H322M lung) | TGI (MOLT-4 leukemia) | TGI (A549 NSCLC) | TGI (MDA-MB-231 breast) | TGI (SK-MEL-5 melanoma) | TGI (HCT-116 colon) | TGI (SF-539 CNS) | TGI (M14 melanoma) | TGI (HCT-15 colon) | TGI (HOP-62 NSCLC) | TGI (SNB-19 CNS) | TGI (NCI-H460 NSCLC) | TGI (IGROV1 ovarian) | TGI (U251 glioblastoma) | TGI (DU-145 prostate) | TGI (OVCAR-4 ovarian) | TGI (ACHN renal)
9.75 µM: TGI (MDA-MB-468 breast)
